Broadly, the IC50 is the point on the concentration scale where inhibition reaches its midpoint. For orientation: viability, T/C means the result in the treated group divided by that in the control group, in per cent.

This assay deals with 171881-019-R-J1-PDC complex spheroid viability. The experiment in a line: Anticancer human tumor 171881-019-R-J1-PDC patient-derived invasive breast carcinoma cell line growth inhibition. The following applies: for viability, T/C: stronger effect = lower value. The essentials:
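Multicellular complex spheroids of tumor cells with human endothelial cells (HUVEC) and mesenchymal stem cells; the LSD1 inhibitor iadademstat was combined with standard-of-care or investigational agents. Top concentration at or near clinical Cmax, half-log dilutions; final DMSO ≤0.25%.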

The mark [1] stands for this setting: curve of first compound, second compound 0.1 µM.
[2] abbreviates: curve of first compound, second compound 0.316 µM.
The mark [3] stands for this setting: curve of first compound, second compound 1 µM.
Where [4] appears, read: curve of first compound, second compound 3.16 µM.
Setting [5] is: curve of first compound, second compound 10 µM.
Setting [6] is: second compound 0.1 µM, first compound 0.0316 µM.
Setting [7] is: second compound 0.1 µM, first compound 0.1 µM.
Where [8] appears, read: second compound 0.316 µM, first compound 0.0316 µM.
The mark [9] stands for this setting: second compound 0.316 µM, first compound 0.1 µM.
[10] abbreviates: second compound 1 µM, first compound 0.0316 µM.
Setting [11] is: second compound 1 µM, first compound 0.1 µM.
[12] abbreviates: second compound 3.16 µM, first compound 0.0316 µM.
Where [13] appears, read: second compound 3.16 µM, first compound 0.1 µM.
Where [14] appears, read: second compound 10 µM, first compound 0.0316 µM.
[15] abbreviates: second compound 10 µM, first compound 0.1 µM.

“And” between values parts separate entries of the source, which are not always exact repeats. Equal entries are not always repeated.
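Note: spheroids exposed to agents for 7 days after 3 days growth.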

For `COc1ccc([C@@H](O)c2cc(-c3ncnc4cc(N5CCOCC5)ccc34)c(F)cc2Cl)nn1` + NC1CCC(NC2CC2c2ccccc2)CC1, the IC50 under setting [1] was determined as 1210 nM; the IC50 under setting [2] was found to be 1150 nM; the concentration for half-maximal inhibition (IC50) under setting [3] was 1060 nM; the 50% inhibitory concentration (IC50) under setting [4] was 1040 nM; the concentration for half-maximal inhibition (IC50) under setting [5] came out at 957 nM. For the same compound, the viability, T/C is 94.6% under setting [6]; 107% under setting [7]; 106% (second compound 0.1 µM, first compound 0.316 µM); 58.3% (second compound 0.1 µM, first compound 1 µM); 11.3% (second compound 0.1 µM, first compound 3.16 µM); 6.63% (second compound 0.1 µM, first compound 10 µM). Moreover, the viability, T/C is 94.8% under setting [8]; 104% under setting [9]; 112% (second compound 0.316 µM, first compound 0.316 µM); 55.7% (second compound 0.316 µM, first compound 1 µM); 10.6% (second compound 0.316 µM, first compound 3.16 µM); 5.9% (second compound 0.316 µM, first compound 10 µM). For the same compound, the viability, T/C under setting [10] was 86.7%; the viability, T/C under setting [11] was 101%; the viability, T/C (second compound 1 µM, first compound 0.316 µM) is 109%; the viability, T/C (second compound 1 µM, first compound 1 µM) was 52.3%; the viability, T/C (second compound 1 µM, first compound 3.16 µM) is 10.4%; the viability, T/C (second compound 1 µM, first compound 10 µM) is 5.85%. Besides, the viability, T/C runs as follows: under setting [12], 99.8%; under setting [13], 93.6%; (second compound 3.16 µM, first compound 0.316 µM) 107%; (second compound 3.16 µM, first compound 1 µM) 51.3%; (second compound 3.16 µM, first compound 3.16 µM) 9.78%; (second compound 3.16 µM, first compound 10 µM) 5.03%. The viability, T/C under setting [14] was 103%; the viability, T/C under setting [15] is 115%; the viability, T/C (second compound 10 µM, first compound 0.316 µM) is 108%; the viability, T/C (second compound 10 µM, first compound 1 µM) is 47.6%; the viability, T/C (second compound 10 µM, first compound 3.16 µM) is 7.96%; the viability, T/C (second compound 10 µM, first compound 10 µM) was 3.23%.
Consider `CCc1c2c(nc3ccc(O)cc13)-c1cc3c(c(=O)n1C2)COC(=O)[C@]3(O)CC`, for which the viability, T/C runs as follows: (compound 0.000949 µM) 59.6% and 33.9%; (compound 0.003 µM) 43% and 40.4%; (compound 0.00949 µM) 26.6% and 22%; (compound 0.03 µM) 19.3% and 18.7%; (compound 0.0949 µM) 10.9% and 21%; (compound 0.3 µM) 6.24% and 21.4%. Further, the concentration for half-maximal inhibition (IC50) (curve of compound) is 1.8 nM and < 0.949 nM.
Turning to `COc1cc(C2c3cc4c(cc3C(OC3OC5COC(C)OC5C(O)C3O)C3COC(=O)C23)OCO4)cc(OC)c1O` (stereo unspecified) + NC1CCC(NC2CC2c2ccccc2)CC1, the IC50 under setting [1] was 439 nM; the IC50 under setting [2] turned out to be 440 nM; the IC50 under setting [3] stood at 511 nM; the half-inhibitory concentration (IC50) under setting [4] was determined as 536 nM; the half-inhibitory concentration (IC50) under setting [5] stood at 649 nM. Moreover, the viability, T/C is 72.8% (second compound 0.1 µM, first compound 0.00949 µM); 90.8% (second compound 0.1 µM, first compound 0.03 µM); 87.9% (second compound 0.1 µM, first compound 0.0949 µM); 56.8% (second compound 0.1 µM, first compound 0.3 µM); 33.2% (second compound 0.1 µM, first compound 0.949 µM); 18.5% (second compound 0.1 µM, first compound 3 µM). Further, the viability, T/C (second compound 0.316 µM, first compound 0.00949 µM) was 76.8%; the viability, T/C (second compound 0.316 µM, first compound 0.03 µM) was 98.2%; the viability, T/C (second compound 0.316 µM, first compound 0.0949 µM) was 94%; the viability, T/C (second compound 0.316 µM, first compound 0.3 µM) was 58.1%; the viability, T/C (second compound 0.316 µM, first compound 0.949 µM) was 33.1%; the viability, T/C (second compound 0.316 µM, first compound 3 µM) is 18.4%. For the same compound, the viability, T/C is, setting by setting: (second compound 1 µM, first compound 0.00949 µM) 87.6%; (second compound 1 µM, first compound 0.03 µM) 87.8%; (second compound 1 µM, first compound 0.0949 µM) 86.5%; (second compound 1 µM, first compound 0.3 µM) 57.9%; (second compound 1 µM, first compound 0.949 µM) 39%; (second compound 1 µM, first compound 3 µM) 19.8%. Moreover, the viability, T/C runs as follows: (second compound 3.16 µM, first compound 0.00949 µM) 80.7%; (second compound 3.16 µM, first compound 0.03 µM) 99.1%; (second compound 3.16 µM, first compound 0.0949 µM) 96.4%; (second compound 3.16 µM, first compound 0.3 µM) 60.3%; (second compound 3.16 µM, first compound 0.949 µM) 40.8%; (second compound 3.16 µM, first compound 3 µM) 22.2%. In addition, the viability, T/C is 80.9% (second compound 10 µM, first compound 0.00949 µM); 104% (second compound 10 µM, first compound 0.03 µM); 95% (second compound 10 µM, first compound 0.0949 µM); 67.8% (second compound 10 µM, first compound 0.3 µM); 42.5% (second compound 10 µM, first compound 0.949 µM); 25.8% (second compound 10 µM, first compound 3 µM).
On to `O=C(C=Cc1cccc(S(=O)(=O)Nc2ccccc2)c1)NO`, for which the viability, T/C was 95.8% and 103% (compound 0.00949 µM); 96.6% and 93% (compound 0.03 µM); 111% and 99.2% (compound 0.0949 µM); 72.5% and 65.1% (compound 0.3 µM); 0.88% and 1.85% (compound 0.949 µM); 0.2% and 0.16% (compound 3 µM). Moreover, the IC50 (curve of compound) is 430 nM and 395 nM.
On to `CC(C)CC(NC(=O)C(Cc1ccccc1)NC(=O)c1cnccn1)B(O)O` (stereo unspecified) + NC1CCC(NC2CC2c2ccccc2)CC1, for which the IC50 by setting is: under setting [1], less than 0.316 nM; under setting [2], less than 0.316 nM; under setting [3], less than 0.316 nM; under setting [4], less than 0.316 nM; under setting [5], less than 0.316 nM. In addition, the viability, T/C (second compound 0.1 µM, first compound 0.000316 µM) is 9.27%; the viability, T/C (second compound 0.1 µM, first compound 0.001 µM) is 1.3%; the viability, T/C (second compound 0.1 µM, first compound 0.00316 µM) is 3.65%; the viability, T/C (second compound 0.1 µM, first compound 0.01 µM) was 0.1%; the viability, T/C under setting [6] is 0.06%; the viability, T/C under setting [7] is 0.11%. Further, the viability, T/C was 8.56% (second compound 0.316 µM, first compound 0.000316 µM); 1.25% (second compound 0.316 µM, first compound 0.001 µM); 0.38% (second compound 0.316 µM, first compound 0.00316 µM); 0.1% (second compound 0.316 µM, first compound 0.01 µM); 0.09% under setting [8]; 0.14% under setting [9]. In addition, the viability, T/C reads like this: (second compound 1 µM, first compound 0.000316 µM) 10.1%; (second compound 1 µM, first compound 0.001 µM) 1.4%; (second compound 1 µM, first compound 0.00316 µM) 0.35%; (second compound 1 µM, first compound 0.01 µM) 0.2%; under setting [10], 0.03%; under setting [11], 2.22%. The viability, T/C was 9.75% (second compound 3.16 µM, first compound 0.000316 µM); 3.48% (second compound 3.16 µM, first compound 0.001 µM); 0.44% (second compound 3.16 µM, first compound 0.00316 µM); 0.14% (second compound 3.16 µM, first compound 0.01 µM); 0.04% under setting [12]; 1.61% under setting [13]. For the same compound, the viability, T/C runs as follows: (second compound 10 µM, first compound 0.000316 µM) 5.79%; (second compound 10 µM, first compound 0.001 µM) 0.65%; (second compound 10 µM, first compound 0.00316 µM) 0.32%; (second compound 10 µM, first compound 0.01 µM) 0.23%; under setting [14], 0.09%; under setting [15], 0.37%.
Take `Nc1ccn(C2OC(CO)C(O)C2(F)F)c(=O)n1` (stereo unspecified): the viability, T/C by setting is: (compound 0.000949 µM) 73.3% and 67.7%; (compound 0.003 µM) 53.2% and 58.2%; (compound 0.00949 µM) 57.9% and 55.9%; (compound 0.03 µM) 62.1% and 61.5%; (compound 0.0949 µM) 64.6% and 63.9%; (compound 0.3 µM) 58.1% and 64.4%. In addition, under “curve of compound”, the IC50 is greater than 300 nM.

Source of the values: PubChem BioAssay AID1918932 (Molecular Pharmacology Branch, DTP, NCI, 2023).
